The record followed here is patent US5079260A, “Method for treating inflammation and compounds and compositions suitable for use therein” (Nova Pharmaceutical Corporation, priority 1990, dated 1992).

In one experiment the test system is Ear Edema Caused by Arachidonic Acid. Description: Inhibition of Ear Edema Caused by Arachidonic Acid (II), Table 8. As to conditions: i.p., 10 mg/kg; sixty minutes. The class given is in vivo, CF-1 mice. Here is the method:
Inhibition of Ear Edema Caused by Arachidonic Acid (II)
CF-1 mice, 25-30 g body weight, six animals per group, were used. The requisite amount of the test compound was dissolved is dimethyl sulfoxide or 0.5% methylcellulose and 100 μL of the solution was injected intraperitoneally 30 minutes prior to the administration of 100 mg/kg of arachidponic acid. A solution of this irritant, b 100 mg/mL in ethanol, was applied to the surface of the ear, 5 μL to the upper surface and 5 μL to the lower surface. After sixty minutes, the thickness of the ear was measured to 0.01 mm by a micrometer with the loose drag positioned at the lateral-most edge of the mid-point of the pinna. Data were calculated as the percent inhibityion by the test compound of increased ear thickness compared to control animals recieveing only the irritant.
On to `Cc1cccc2c1C(COC(=O)N[C@H](C(=O)O)C(C)(C)C)c1ccccc1-2` (stereo partly drawn) [NPC 15952, N-{[9H-(1-Methylfluoren-9-yl)methoxy]carbonyl}-L-tert-leucine], for which the “% Inhibition Intraperitoneal” value was 43%.
Take `O=C(CCC1c2ccccc2-c2ccccc21)N[C@@H](Cc1ccccc1)C(=O)O` [NPC 15896, N-[3-(9H-Fluoren-9-yl)propionyl]-L-Phenylalanine]: the “% Inhibition Intraperitoneal” value is 16%.

The same experiment, now with this note: i.p., 30 mg/kg; sixty minutes.
Take `Cc1cccc2c1C(COC(=O)N[C@H](C(=O)O)C(C)(C)C)c1ccccc1-2` (stereo partly drawn) [NPC 15952, N-{[9H-(1-Methylfluoren-9-yl)methoxy]carbonyl}-L-tert-leucine]: the “% Inhibition Intraperitoneal” value is recorded as 47%.
Same read-out and setting: next, `O=C(CCC1c2ccccc2-c2ccccc21)N[C@@H](Cc1ccccc1)C(=O)O` [NPC 15896, N-[3-(9H-Fluoren-9-yl)propionyl]-L-Phenylalanine]: 24%.

Still in this experiment, the particulars now being: i.p., 100 mg/kg; sixty minutes.
Take `Cc1cccc2c1C(COC(=O)N[C@H](C(=O)O)C(C)(C)C)c1ccccc1-2` (stereo partly drawn) [NPC 15952, N-{[9H-(1-Methylfluoren-9-yl)methoxy]carbonyl}-L-tert-leucine]: the “% Inhibition Intraperitoneal” value was determined as 50%.
As to `O=C(CCC1c2ccccc2-c2ccccc21)N[C@@H](Cc1ccccc1)C(=O)O` [NPC 15896, N-[3-(9H-Fluoren-9-yl)propionyl]-L-Phenylalanine], the “% Inhibition Intraperitoneal” value was determined as 72%.

The next experiment concerns Ear Edema Caused by Xylene. Briefly: Inhibition of Ear Edema Caused by Xylene (II), Table 9. To be noted: i.p., 10 mg/kg; 2 h. The class given is in vivo, CF-1 mice. Here is the method:
Inhibition of Ear Edema Caused by Xylene (II)
CF-1 mice, 25-30 g body weight, six animals per group, were used. The requisite amount of the test compound was dissolved is dimethyl sulfoxide or 0.5% methylcellulose and 100 μL of the solution was injected intraperitoneally 30 minutes prior to the administration the irritant. The irritant xylene was applied to the surface of the ear, 20 μL to the upper surface and 20 μL to the lower surface, After two hours, the thickness of the ear was measured to 0.01 mm by a micrometer with the loose drag positioned at the lateral-most edge of the mid-point of the pinna. Data were calculated as the percent inhibition by the test compound of increased ear thickness compared to control animals receiving only the irritant.
`Cc1cccc2c1-c1ccccc1C2COC(=O)N[C@@H](CCc1ccccc1)C(=O)O` (stereo partly drawn) [NPC 15961, N-{[9H-(4-Methylfluoren-9-yl)methoxy]carbonyl}-L-homophenylalanine]: the “% Inhibition” value is 41%.
Still for that read-out and setting: as for `Cc1cccc2c1C(COC(=O)N[C@H](C(=O)O)C(C)(C)C)c1ccccc1-2` (stereo partly drawn) [NPC 15952, N-{[9H-(1-Methylfluoren-9-yl)methoxy]carbonyl}-L-tert-leucine], the figure is 29%; as for `O=C(CCC1c2ccccc2-c2ccccc21)N[C@@H](Cc1ccccc1)C(=O)O` [NPC 15896, N-[3-(9H-Fluoren-9-yl)propionyl]-L-Phenylalanine], 28%.

Still in this experiment, the particulars now being: i.p., 30 mg/kg; 2 h.
On to `Cc1cccc2c1-c1ccccc1C2COC(=O)N[C@@H](CCc1ccccc1)C(=O)O` (stereo partly drawn) [NPC 15961, N-{[9H-(4-Methylfluoren-9-yl)methoxy]carbonyl}-L-homophenylalanine], for which the “% Inhibition” value amounted to 41%.
The same measure, in the same setting: next, `Cc1cccc2c1C(COC(=O)N[C@H](C(=O)O)C(C)(C)C)c1ccccc1-2` (stereo partly drawn) [NPC 15952, N-{[9H-(1-Methylfluoren-9-yl)methoxy]carbonyl}-L-tert-leucine]: 39%; `O=C(CCC1c2ccccc2-c2ccccc21)N[C@@H](Cc1ccccc1)C(=O)O` [NPC 15896, N-[3-(9H-Fluoren-9-yl)propionyl]-L-Phenylalanine]: 24%.

Still in this experiment, the particulars now being: i.p., 100 mg/kg; 2 h.
Consider `Cc1cccc2c1-c1ccccc1C2COC(=O)N[C@@H](CCc1ccccc1)C(=O)O` (stereo partly drawn) [NPC 15961, N-{[9H-(4-Methylfluoren-9-yl)methoxy]carbonyl}-L-homophenylalanine], for which the “% Inhibition” value is on record as 57%.
The same measure, in the same setting: as for `Cc1cccc2c1C(COC(=O)N[C@H](C(=O)O)C(C)(C)C)c1ccccc1-2` (stereo partly drawn) [NPC 15952, N-{[9H-(1-Methylfluoren-9-yl)methoxy]carbonyl}-L-tert-leucine], the figure is 43%; as for `O=C(CCC1c2ccccc2-c2ccccc21)N[C@@H](Cc1ccccc1)C(=O)O` [NPC 15896, N-[3-(9H-Fluoren-9-yl)propionyl]-L-Phenylalanine], 21%.

In a further experiment the test system is Ear Edema Caused by Oxazolone. Briefly: Inhibition of Ear Edema Caused by Oxazolone (II), Table 10. To be noted: i.p., 10 mg/kg; 24 h. In kind it is in vivo, CF-1 mice. Here is the method:
Inhibition of Ear Edema Caused by Oxazolone (II)
CF-1 mice, 25-30 g body weight, five to six animals per group were used. The mice were sensitized to the irritant two weeks prior to the test by dribbling 100 μL of a 3% solution of oxazolone in acetone onto the abdominal skin of the animal. Test compounds were administered intraperitoneally as follows. […] The irritant, 3% oxazolone in acetone, was added to the surface of the ear, 5 μL added to the upper surface and 5 μL added to the lower surface. After twenty four hours, the thickness of the ear was measured to 0.01 mm by a micrometer with loose drag, positioned at the lateral-most edge of the mid-point of the pinna. Data were calculated as the inhibition of increased ear thickness compared to control animals' receiving only the irritant.
Take `Cc1cccc2c1-c1ccccc1C2COC(=O)N[C@@H](CCc1ccccc1)C(=O)O` (stereo partly drawn) [NPC 15961, N-{[9H-(4-Methylfluoren-9-yl)methoxy]carbonyl}-L-homophenylalanine]: the “% Inhibition Intraperitoneal” value came out at 29%.
`Cc1cccc2c1C(COC(=O)N[C@H](C(=O)O)C(C)(C)C)c1ccccc1-2` (stereo partly drawn) [NPC 15952, N-{[9H-(1-Methylfluoren-9-yl)methoxy]carbonyl}-L-tert-leucine]: the “% Inhibition Intraperitoneal” value is reported as 21%.

Staying with this experiment, now noted: i.p., 30 mg/kg; 24 h.
As to `Cc1cccc2c1-c1ccccc1C2COC(=O)N[C@@H](CCc1ccccc1)C(=O)O` (stereo partly drawn) [NPC 15961, N-{[9H-(4-Methylfluoren-9-yl)methoxy]carbonyl}-L-homophenylalanine], the “% Inhibition Intraperitoneal” value is 23%.
Still for that read-out and setting: as for `Cc1cccc2c1C(COC(=O)N[C@H](C(=O)O)C(C)(C)C)c1ccccc1-2` (stereo partly drawn) [NPC 15952, N-{[9H-(1-Methylfluoren-9-yl)methoxy]carbonyl}-L-tert-leucine], the figure is 24%.

The same experiment, now with this note: i.p., 100 mg/kg; 24 h.
`Cc1cccc2c1-c1ccccc1C2COC(=O)N[C@@H](CCc1ccccc1)C(=O)O` (stereo partly drawn) [NPC 15961, N-{[9H-(4-Methylfluoren-9-yl)methoxy]carbonyl}-L-homophenylalanine]: the “% Inhibition Intraperitoneal” value is 92%.
As for `Cc1cccc2c1C(COC(=O)N[C@H](C(=O)O)C(C)(C)C)c1ccccc1-2` (stereo partly drawn) [NPC 15952, N-{[9H-(1-Methylfluoren-9-yl)methoxy]carbonyl}-L-tert-leucine], the “% Inhibition Intraperitoneal” value was 72%.

A further experiment has as its system Ear Edema Caused By Tetradecanoylphorbol Acetate. Description: Inhibition of Ear Edema Caused by Tetradecanoylphorbol Acetate (II), Table 7. The class given is in vivo, CF-1 Mice. To be noted: i.p., 10 mg/kg; 3 h. Here is the method:
Inhibition of Ear Edema Caused by Tetradecanoylphorbol Acetate (II)
CF-1 Mice, 25-30 g body weight, six animals per group were used. Test compounds were administered intraperitoneally or topically as follows. For intraperitoneal administration, the test compound was dissolved in dimethyl sulfoxide or 0.5% methylcellulose and 100 microliters was injected 30 minutes prior to irritant (100 mg/kg, i.p.). […] A solution of the irritant, tetradecanoylphorbol acetate, 200 μg/mL, was added to the surface of the ear, 5 μL to the upper surface and 5 μL to the lower surface. After three hours, the thickness of the ear was measured to 0.01 mm by a micrometer with loose drag, positioned at the lateral-most edge of the mid-point of the pinna. Data were calculated as the inhibition of increased ear thickness compared to control animals receiving only the irritant.
On to `Cc1cccc2c1C(COC(=O)N[C@H](C(=O)O)C(C)(C)C)c1ccccc1-2` (stereo partly drawn) [NPC 15952, N-{[9H-(1-Methylfluoren-9-yl)methoxy]carbonyl}-L-tert-leucine], for which the “% Inhibition Intraperitoneal” value amounted to 27%.
Turning to `O=C(CCC1c2ccccc2-c2ccccc21)N[C@@H](Cc1ccccc1)C(=O)O` [NPC 15896, N-[3-(9H-Fluoren-9-yl)propionyl]-L-Phenylalanine], the “% Inhibition Intraperitoneal” value turned out to be 0%.

The experiment is the same for the next values; noted with them: i.p., 30 mg/kg; 3 h.
For the molecule `Cc1cccc2c1C(COC(=O)N[C@H](C(=O)O)C(C)(C)C)c1ccccc1-2` (stereo partly drawn) [NPC 15952, N-{[9H-(1-Methylfluoren-9-yl)methoxy]carbonyl}-L-tert-leucine], the “% Inhibition Intraperitoneal” value was found to be 75%.
The same measure, in the same setting: next, `O=C(CCC1c2ccccc2-c2ccccc21)N[C@@H](Cc1ccccc1)C(=O)O` [NPC 15896, N-[3-(9H-Fluoren-9-yl)propionyl]-L-Phenylalanine]: 0%.

Staying with this experiment, now noted: i.p., 100 mg/kg; 3 h.
Turning to `Cc1cccc2c1C(COC(=O)N[C@H](C(=O)O)C(C)(C)C)c1ccccc1-2` (stereo partly drawn) [NPC 15952, N-{[9H-(1-Methylfluoren-9-yl)methoxy]carbonyl}-L-tert-leucine], the “% Inhibition Intraperitoneal” value is 67%.
On the same count and under the same terms, as for `O=C(CCC1c2ccccc2-c2ccccc21)N[C@@H](Cc1ccccc1)C(=O)O` [NPC 15896, N-[3-(9H-Fluoren-9-yl)propionyl]-L-Phenylalanine], the figure is 84%.
